In the test the target is T1, Zinc finger protein mex-5 (Caenorhabditis elegans, UniProt Q9XUB2).
T1 sequence (Q9XUB2 whole entry): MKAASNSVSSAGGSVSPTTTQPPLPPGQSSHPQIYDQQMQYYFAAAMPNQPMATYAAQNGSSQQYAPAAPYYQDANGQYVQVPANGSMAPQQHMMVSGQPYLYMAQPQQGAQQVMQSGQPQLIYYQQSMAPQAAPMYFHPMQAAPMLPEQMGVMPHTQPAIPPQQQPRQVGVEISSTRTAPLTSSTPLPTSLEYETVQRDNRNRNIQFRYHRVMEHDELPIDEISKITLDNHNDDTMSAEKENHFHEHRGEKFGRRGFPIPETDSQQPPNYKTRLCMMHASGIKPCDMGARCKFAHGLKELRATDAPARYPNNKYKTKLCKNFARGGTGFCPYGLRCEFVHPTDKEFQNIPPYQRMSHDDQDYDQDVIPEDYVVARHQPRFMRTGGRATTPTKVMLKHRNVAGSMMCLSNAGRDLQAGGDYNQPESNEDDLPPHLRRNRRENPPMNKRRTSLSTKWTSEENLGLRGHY
Description: potency of MEX-5 RNA-binding blockers – biochemical, C. elegans, fluorescence polarization, dose response (AID 1960).

Where a name gives a salt, the structure may show the parent alone.

`COc1ccc(N=C(C(=C(Cl)C(Cl)Cl)[N+](=O)[O-])n2nnc3ccccc32)cc1` [N-[(1E)-1-(1-benzotriazolyl)-3,4,4-trichloro-2-nitrobuta-1,3-dienyl]-4-methoxyaniline]: the concentration giving a half-maximal response (EC50) turned out to be 49.1 µM. For `C[C@H]1c2cccc(O)c2C(=O)C2C(=O)[C@]3(O)C(=O)C(C(N)=O)C(=O)[C@@H](N(C)C)C3C(O)C21` (stereo partly drawn) [(2Z,4S,5S,6R,12aS)-2-[amino(hydroxy)methylidene]-4-(dimethylamino)-5,10,11,12a-tetrahydroxy-6-methyl-4a,5,5a,6-tetrahydro-4H-tetracene-1,3,12-trione;ethanol;hydrate;hydrochloride] the value was 45.3 µM; for `C=c1c(C(=O)OC)c(O)c(=Cc2ccco2)n1-c1ccccc1` [MLS000780287], 5.06 µM. For `CC1(C)CC(=O)C2=C(C1)OC(=N)C(C#N)C21C(=O)N(CN2CCOCC2)c2ccccc21` (centres undefined) [2-amino-2',5-diketo-7,7-dimethyl-1'-(morpholinomethyl)spiro[6,8-dihydrochromene-4,3'-indoline]-3-carbonitrile] the value was above 300 µM; for `COc1ccc(C2CC(c3ccc(Br)s3)=Nc3ncnn32)cc1OC` (centres undefined) [SMR000032927], 6.36 µM; for `COc1cccc(CN2C(=O)C3(C4=C(CCCC4=O)OC(=N)C3C#N)c3ccccc32)c1` (centres undefined) [2-amino-1'-(3-methoxybenzyl)-2',5-dioxo-1',2',5,6,7,8-hexahydrospiro[chromene-4,3'-indole]-3-carbonitrile], above 300 µM. Then `COc1cc(C2NC(=S)N=C(C)C2C(=O)OC(C)C)ccc1OC(C)C` (centres undefined) [4-(3-methoxy-4-propan-2-yloxyphenyl)-6-methyl-2-sulfanylidene-3,4-dihydro-1H-pyrimidine-5-carboxylic acid propan-2-yl ester], with above 300 µM. Turning to `Oc1csc(N=NCc2cccs2)n1` [2-[2-(thiophen-2-ylmethylidene)hydrazinyl]-1,3-thiazol-4-one], the EC50 is above 300 µM. On to `O=C(O)c1cc(-c2ccc(CN=Nc3ccc([N+](=O)[O-])cn3)o2)ccc1Cl` [2-chloro-5-[5-[[(5-nitropyridin-2-yl)hydrazinylidene]methyl]furan-2-yl]benzoic acid], for which the EC50 is 6.29 µM.

The values are drawn from BindingDB's records for doi:10.7270/Q2D798VP (Broad Institute, 2009).
